According to a melting point compilation (Tetko et al.; mined from patent text by program, amines drawn as free bases though some values may be those of a salt):

| Compound | melting point |
| --- | --- |
| CCOc1ccc(Nc2ncc3cc(-c4c(Cl)cccc4Cl)c(=O)n(CC)c3n2)cc1 | 192 to 194 °C |
| OC1CSC(Oc2cncc(-c3nccs3)c2)C(O)C1O (stereo not drawn) | 204 °C |
| CCCCCCCCCCc1nnnn1CC(=O)O | 104 to 106 °C |
| O=c1[nH]c(CCCl)c(Cl)c(=O)[nH]1 | 225 °C |
| COc1ccc(-c2nc(Cn3ccnn3)co2)cc1 | 126 to 127 °C |
| CCCCCCCCCCCCCCc1ccc(C(=O)OC)cc1 | 28 to 29 °C |
| CCCCCCCN(CC)CCC(O)c1ccc(NS(C)(=O)=O)cc1 (stereo not drawn) | 74 to 75 °C |
| CCC1=CC(c2cccc([N+](=O)[O-])c2)C2=C(CCCC2=O)N1 (stereo not drawn) | 182 to 184 °C |
| O=C(Cc1ncccn1)c1ccc(F)cc1F | 86 to 88 °C |
| Cc1nc(N2CCN(Cc3ccc(OC(F)(F)F)cc3)C2=O)sc1C(=O)NCCC1CC1 | 195 to 196 °C |
| CSCCCN1C(=O)C(NC(=O)c2cc3ccccc3[nH]2)N=C(c2ccccc2)c2ccccc21 (racemic) | 216 to 221 °C |
| CN1CCN(CCCNc2nc(N)c(C(=O)c3ccc(Cl)s3)s2)CC1 | 184 °C |
| O=C(O)Cc1ccc2c(c1)Nc1ccccc1S2 | 202 °C |
| CCOC(=O)C(C)Oc1ccc(Oc2cc3cc(Cl)ccc3nc2Cl)cc1 (stereo not drawn) | 56 °C |
| CN(C)C=CC(=O)c1ccc(C(F)(F)F)cc1[N+](=O)[O-] | 101 °C |
| CCOC(=O)C(=O)C(C#N)Cc1ccccc1 (stereo not drawn) | 80 to 83 °C |
| COc1ccc(C=C2CCN(C(=O)c3nc4ccc(O)cc4[nH]3)CC2)cc1 | 208 °C |
| CCCC(O)c1ccc(C(=O)O)cc1 (stereo not drawn) | 109 to 113 °C |
| CCOC(=O)N[C@@H]1CCc2ccccc2[C@H]1Nc1ccccc1CO (relative stereo) | 134 to 135 °C |
| CC(C)(O)C1CCN(S(=O)(=O)c2cc(C#N)ccc2Oc2cc(Cl)ccc2Cl)CC1 | 221 to 225 °C |
| COc1ccc(C(Sc2c(N)ccc3ccccc23)C(O)C(=O)O)cc1 (stereo not drawn) | 143 to 145 °C |
| COc1c(N2C[C@H]3CC=C[C@@]3(N)C2)c(F)cc2c(=O)c(C(=O)O)cn([C@@H]3C[C@@H]3F)c12 | 206 to 208 °C |
| O=[N+]([O-])c1cn2c(n1)O[C@@H](COc1ccc(N3CCC(COc4ccc(C(F)(F)F)cc4)CC3)cc1)C2 | 175 to 180 °C |
| CCCNCC1CCN(c2nc3c(cc2F)c(=O)c(C(=O)O)cn3C2CC2)C1 (stereo not drawn) | 230 to 233 °C |
| CC(=Cc1ccc(Cl)cc1Cl)c1ccc(Cl)cc1 | 84 to 85 °C |

| Compound | melting point |
| --- | --- |
| CC(=O)Nc1cc(C)cc(CCC(=O)O)n1 | 202 °C |
| O=C(O)C1C=Nc2c(ccc3ncccc23)N1O (stereo not drawn) | > 300 °C |
| Nc1cc(Br)cnc1CCCCNc1ncc(Cc2ccc(F)cc2)c(=O)[nH]1 | 146 to 148 °C |
| COc1ccc2c(=O)c(O)cn(C)c2c1 | 228 °C |
| COc1c(C(C)C)cc(S(N)(=O)=O)c(C)c1C(=O)NCC1CCCN1C1CCCC1 (stereo not drawn) | 196 °C |
| CCN1C(=O)C(C)(C)C(=O)N(C)c2cc(CN(CCn3cc(C)c4occc4c3=O)Cc3cc(COC)nn3C)ccc21 | 169 to 170 °C |
| O=[N+]([O-])c1ccc(Nc2nc(Cl)nc3nc[nH]c23)cc1 | > 270 °C |
| COc1cc(C(=O)N2CCC(CCN3CCC(C(=O)c4nc5ccccc5[nH]4)CC3)(c3ccccc3)C2)cc(OC)c1OC (stereo not drawn) | 108 to 111 °C |
| CCOc1ccccc1OS(N)(=O)=O | 62 to 65 °C |
| COC1CC(c2ccc(-c3ccc(C#N)cc3)cc2)C(OC)O1 (stereo not drawn) | 149 to 150 °C |
| [N-]=[N+]=C1c2ccccc2-c2ccc(Cl)cc21 | 102 to 108 °C |
| COc1ccc(-c2nc(S(=O)c3ccncc3)[nH]c2-c2ccc(OC)cc2)cc1 (stereo not drawn) | 170 to 171 °C |
| CC(C)c1cc2nc(N)[nH]c(=O)c2cc1-c1ccc(Cl)cc1 | 326 to 330 °C |
| O=c1c2ccccc2cc(N2CCCCC2)c2ccccc12 | 103 to 105 °C |
| CSC1=Nc2ccccc2N(C)c2cscc21 | 113 to 115 °C |
| O=C(O)c1cccc(-c2cc(-c3ccc(Cl)cc3)no2)c1 | 265 to 266 °C |
| COc1cccc2c1C(=O)c1c(OC)cc(Cc3ccccc3C(O)=S)cc1C2=O | 235 to 237 °C |
| C=CCOC(=O)Nc1cc(C(C)(C)C)[nH]n1 | 131 to 132 °C |
| CCc1ccc(N)c(C(=O)c2ccccc2)c1 | 57 to 59 °C |
| ON=CCOc1ccc(Oc2ccccc2)cc1 | 102 to 105 °C |
| FC(F)(F)c1ccc(-c2cc(C(F)(F)F)n3ncc(-c4ccncc4)c3n2)cc1C(F)(F)F | 209 °C |
| CCOC(=O)c1cnc(O)nc1NCc1ccc(OC)c(Cl)c1 | 117 to 122 °C |
| CCOC1(OCC)CCC(C#N)(CC#N)CC1 | 74 to 75 °C |
| COc1ccc(Cn2nnnc2C(=O)Nc2cc(OCCCOc3ccc(C(C)=O)c(O)c3CCC(F)(F)F)c(Br)cc2C)cc1 | 140 to 142 °C |
| CC(C)(C)n1ncc(S)c(Br)c1=O | 107 to 110 °C |

| Compound | melting point |
| --- | --- |
| Cc1ccc(S(=O)(=O)N2[C@@H](CCc3nc(C)no3)CC[C@H]2c2ccc(F)cc2)cc1 (racemic) | 91 °C |
| Cc1c(C(=O)Nc2ccc(N3CCC(N4CCC(O)CC4)CC3)c(C#N)c2)cnn1-c1ccc(Cl)cc1 | 213 °C |
| CN(C)c1ccc([N+](=O)[O-])cn1 | 146 to 149 °C |
| Clc1cc(CCc2ccccn2)c2oc(-c3cnc4ccccc4c3)nc2c1 | 124 to 125 °C |
| CCCCOc1cc(/C=C(\OCC)C(=O)O)ccc1CCCc1ccc(OC)cc1 | 65 °C |
| Cc1sc2[nH]c(=S)nc(N)c2c1C | > 260 °C |
| C[C@@H](Nc1ncnc2cc(OCCO)c([N+](=O)[O-])cc12)c1ccccc1 | 187 to 192 °C |
| Nc1ccc(N2CCN(Cc3ccccc3)CC2)cc1C(=O)O | 242 °C |
| O=S(=O)(NCCc1ccc(Cc2nnn[nH]2)cc1)c1ccc(Cl)cc1 | 168 to 169 °C |
| CCCCCCOc1ccc2cc([C@H]3CC[C@H](CCCCCC)CC3)ccc2c1 | 48 °C |
| Cc1c(N)noc1C(F)(F)C(F)(F)F | 32 to 34 °C |
| CCCCN1C(=O)CCC(C)(C)c2cc(C(=O)Nc3ccc(C(=O)O)cc3)ccc21 | 269 °C |
| CC1C(=O)N(c2ccc(O)cc2)C(=S)N1c1ccc(Oc2ccccc2)cc1 (stereo not drawn) | 202 to 204 °C |
| Nc1cccc(-c2n[nH]c3ncnc(Nc4cccc(Cl)c4)c23)c1 | 264 to 266 °C |
| O=C1c2ccccc2C(=O)N1Cc1ccc(Br)nc1 | 130 to 131 °C |
| Cc1cc(-c2ccccc2C)ccc1NC(=O)c1ccc2n1Cc1ccccc1N(C(=O)COc1ccc(Cl)cc1)C2 | 159 to 161 °C |
| Cn1c(C#N)ccc1-c1ccc2c(c1)C1(CCCCC1)C(=S)N2 | 269 to 272 °C |
| CC(C)Cc1ccc(C(C)C(N)=O)cc1 (stereo not drawn) | 84 to 86 °C |
| O=Cc1cc2c(cc1[N+](=O)[O-])OC(F)(F)O2 | 36 to 38 °C |
| O=C(c1ccccn1)c1cc(Br)ccc1-n1cnnc1CCl | 147 to 149 °C |
| COc1cc2c(c(Cl)c1Cl)C(=O)C(CCCCl)C2 (stereo not drawn) | 130 to 132 °C |
| CCCCCCN1C(=O)NC(=O)C1O (stereo not drawn) | 96 to 97 °C |
| CCOC(=O)C1=C(COCCN=[N+]=[N-])NC(C)=C(C(=O)OC)C1c1ccccc1Cl (stereo not drawn) | 145 to 146 °C |
